# Laboratory results from PubChem BioAssay (NCI).
#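 Compound exposure: 48 hours, 5 concentrations, 96-well plates. The concentration for full growth arrest is given as TGI.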
# Tests used:
# Assay in all cases: NCI anticancer screen, dose series, 48 h
# [1] = system: HOP-62 NSCLC
# [2] = system: OVCAR-5 ovarian
# [3] = system: CCRF-CEM leukemia
# [4] = system: LOX IMVI melanoma
# [5] = system: DU-145 prostate
# [6] = system: A549 NSCLC
# [7] = system: CAKI-1 renal
# [8] = system: HT29 colon
# [9] = system: NCI-H23 lung
# [10] = system: OVCAR-4 ovarian
# [11] = system: NCI-H522 lung
# [12] = system: SNB-75 CNS
SMILES,TGI [1],TGI [2],TGI [3],TGI [4],TGI [5],TGI [6],TGI [7],TGI [8],TGI [9],TGI [10],TGI [11],TGI [12]
N#Cc1nc(-c2ccccc2O)oc1N,> 100 µM,> 100 µM,> 100 µM,> 100 µM,> 100 µM,> 100 µM,> 100 µM,> 100 µM,,,,
CC(=O)O[C@@H]1[C@@H](C)[C@]2(CC(c3ccoc3)OC2O)C2CCC3O[C@]3(C)[C@]2(C)[C@@H]1OC(C)=O (some centres undefined),,> 100 µM,61.5 µM,44.1 µM,> 100 µM,> 100 µM,> 100 µM,> 100 µM,> 100 µM,> 100 µM,69.7 µM,> 100 µM
CCCC(=O)n1[nH]c(=O)n(C(C)(C)C)c1=O,> 100 µM,> 100 µM,> 100 µM,> 100 µM,> 100 µM,> 100 µM,> 100 µM,> 100 µM,> 100 µM,> 100 µM,,> 100 µM
Nc1nc(NNc2ccccc2F)cc(=O)[nH]1,> 100 µM,> 100 µM,> 100 µM,> 100 µM,> 100 µM,> 100 µM,,> 100 µM,,> 100 µM,,
c1ccc2c(c1)ncn2CCn1ccnc1,> 100 µM,> 100 µM,> 100 µM,> 100 µM,> 100 µM,> 100 µM,,> 100 µM,> 100 µM,> 100 µM,> 100 µM,> 100 µM
Cc1ccc(O)c(-c2cc(-c3ccccc3)nc(/N=C\c3ccccc3)n2)c1,58.8 µM,> 100 µM,> 100 µM,> 100 µM,> 100 µM,> 100 µM,,> 100 µM,81.5 µM,> 100 µM,> 100 µM,40.9 µM
CC(=O)N1N=C(c2ccc3ccccc3c2O)CC1c1ccc(Cl)cc1Cl (centres undefined),> 100 µM,> 100 µM,> 100 µM,,> 100 µM,> 100 µM,> 100 µM,> 100 µM,> 100 µM,> 100 µM,> 100 µM,> 100 µM
c1ccc(N=C2C(=Nc3ccccc3)N(C3CCCCC3)C(=NC3CCCCC3)N2c2ccccc2)cc1,> 100 µM,> 100 µM,,,,> 100 µM,,> 100 µM,> 100 µM,,,> 100 µM
O=C(/C=C/c1cc(F)ccc1F)OCCc1ccccc1,> 100 µM,> 100 µM,> 100 µM,,,> 100 µM,> 100 µM,> 100 µM,> 100 µM,47.4 µM,> 100 µM,> 100 µM
O=C(Nc1ccccc1)c1cc2c(cc1Cl)SC(NNCCO)=NS2(=O)=O,> 100 µM,,> 100 µM,> 100 µM,> 100 µM,,> 100 µM,> 100 µM,> 100 µM,> 100 µM,,> 100 µM
CSc1ncc2c(C#N)c3ccccn3c(=O)c2n1,> 100 µM,> 100 µM,> 100 µM,> 100 µM,> 100 µM,> 100 µM,> 100 µM,> 100 µM,> 100 µM,> 100 µM,,> 100 µM
c1ccc2c(c1)ccc1nc3ccccn3c12,> 100 µM,> 100 µM,> 100 µM,,> 100 µM,> 100 µM,,> 100 µM,> 100 µM,,,> 100 µM
CC(=O)OCC1=C2C(OC(=O)C(C)C)CC3(COC(C)=O)OC3/C=C\C3(C)OC3C2OC1=O (centres undefined),> 100 µM,> 100 µM,> 100 µM,> 100 µM,> 100 µM,> 100 µM,> 100 µM,> 100 µM,> 100 µM,> 100 µM,,> 100 µM
c1csc(-c2ccc(-c3ccsc3)s2)c1,> 100 µM,> 100 µM,> 100 µM,> 100 µM,,> 100 µM,> 100 µM,> 100 µM,> 100 µM,> 100 µM,> 100 µM,> 100 µM
CSC1=N/C(=C\c2ccccc2)C(=O)N1CN1CCOCC1,> 100 µM,> 100 µM,> 100 µM,> 100 µM,> 100 µM,> 100 µM,,78.5 µM,> 100 µM,90.8 µM,> 100 µM,> 100 µM
COc1ccc(C(=O)/C=C/c2ccc(OCC#N)cc2)cc1OC,36.4 µM,,31.3 µM,,23.8 µM,> 100 µM,37.5 µM,74.7 µM,54.5 µM,> 100 µM,32.5 µM,22.9 µM
CCOC(=O)C1=COC(C)(C)CC1=O,> 100 µM,> 100 µM,,,> 100 µM,> 100 µM,> 100 µM,> 100 µM,> 100 µM,> 100 µM,> 100 µM,> 100 µM
Cc1ccc(C)c(NC(=O)/C(=N\N)C(c2cnc3ccc([N+](=O)[O-])cc3n2)[N+](=O)[O-])c1 (centres undefined),> 100 µM,> 100 µM,25.9 µM,> 100 µM,,> 100 µM,> 100 µM,> 100 µM,> 100 µM,62.9 µM,> 100 µM,> 100 µM
c1csc(-c2sc(-c3ccsc3)cc2Cc2ccsc2)c1,> 10 µM,,> 10 µM,> 10 µM,> 10 µM,> 10 µM,> 10 µM,> 10 µM,> 10 µM,> 10 µM,,> 10 µM
CC(C)(C)OC(=O)N(CCCCNC(=O)c1ccccc1)CCCNC(=O)c1ccccc1,> 100 µM,> 100 µM,> 100 µM,,> 100 µM,> 100 µM,> 100 µM,> 100 µM,> 100 µM,> 100 µM,> 100 µM,> 100 µM
Clc1ccc(/C=C/c2nc(-c3ccc(Cl)cc3)cn3c2nc2ccccc23)cc1,> 100 µM,> 100 µM,> 100 µM,> 100 µM,> 100 µM,> 100 µM,,> 100 µM,> 100 µM,> 100 µM,,
